# Experimental data reported in the OligoGym collection.
# Oligonucleotides are given in HELM: sugar(base)linkage, 5' to 3'; d 2'-deoxyribose, r ribose, m 2'-O-methylribose, p phosphate. ss, as = sense and antisense strand
# Molecular target: Mmp7 (rat)
# Assay: reporter assay of Huesken 2005
# Details: siRNA
# Note: test concentration or dose not given here.
row,Substance,normalised inhibition (eCFP-eYFP dual reporter) [%]
1,RNA1{r(G)p.r(G)p.r(A)p.r(G)p.r(A)p.r(C)p.r(U)p.r(G)p.r(G)p.r(A)p.r(A)p.r(A)p.r(G)p.r(C)p.r(U)p.r(G)p.r(U)p.r(C)p.r(C)p.d(T)p.d(T)}|RNA2{r(G)p.r(G)p.r(A)p.r(C)p.r(A)p.r(G)p.r(C)p.r(U)p.r(U)p.r(U)p.r(C)p.r(C)p.r(A)p.r(G)p.r(U)p.r(C)p.r(U)p.r(C)p.r(C)p.d(G)p.d(G)}$$$RNA1{StrandType:ss}|RNA2{StrandType:as}$,88.7
2,RNA1{r(G)p.r(G)p.r(A)p.r(G)p.r(U)p.r(A)p.r(U)p.r(G)p.r(C)p.r(A)p.r(A)p.r(A)p.r(U)p.r(C)p.r(C)p.r(C)p.r(A)p.r(C)p.r(U)p.d(T)p.d(T)}|RNA2{r(A)p.r(G)p.r(U)p.r(G)p.r(G)p.r(G)p.r(A)p.r(U)p.r(U)p.r(U)p.r(G)p.r(C)p.r(A)p.r(U)p.r(A)p.r(C)p.r(U)p.r(C)p.r(C)p.d(A)p.d(C)}$$$RNA1{StrandType:ss}|RNA2{StrandType:as}$,96.7
3,RNA1{r(G)p.r(G)p.r(C)p.r(C)p.r(A)p.r(C)p.r(U)p.r(C)p.r(U)p.r(C)p.r(U)p.r(G)p.r(G)p.r(G)p.r(U)p.r(C)p.r(U)p.r(G)p.r(G)p.d(T)p.d(T)}|RNA2{r(C)p.r(C)p.r(A)p.r(G)p.r(A)p.r(C)p.r(C)p.r(C)p.r(A)p.r(G)p.r(A)p.r(G)p.r(A)p.r(G)p.r(U)p.r(G)p.r(G)p.r(C)p.r(C)p.d(A)p.d(A)}$$$RNA1{StrandType:ss}|RNA2{StrandType:as}$,41.4
4,RNA1{r(G)p.r(G)p.r(C)p.r(C)p.r(A)p.r(G)p.r(G)p.r(A)p.r(A)p.r(A)p.r(C)p.r(A)p.r(C)p.r(U)p.r(C)p.r(U)p.r(A)p.r(G)p.r(G)p.d(T)p.d(T)}|RNA2{r(C)p.r(C)p.r(U)p.r(A)p.r(G)p.r(A)p.r(G)p.r(U)p.r(G)p.r(U)p.r(U)p.r(U)p.r(C)p.r(C)p.r(U)p.r(G)p.r(G)p.r(C)p.r(C)p.d(C)p.d(A)}$$$RNA1{StrandType:ss}|RNA2{StrandType:as}$,54.5
5,RNA1{r(G)p.r(G)p.r(C)p.r(G)p.r(C)p.r(A)p.r(G)p.r(A)p.r(A)p.r(U)p.r(U)p.r(A)p.r(U)p.r(C)p.r(U)p.r(U)p.r(A)p.r(G)p.r(G)p.d(T)p.d(T)}|RNA2{r(C)p.r(C)p.r(U)p.r(A)p.r(A)p.r(G)p.r(A)p.r(U)p.r(A)p.r(A)p.r(U)p.r(U)p.r(C)p.r(U)p.r(G)p.r(C)p.r(G)p.r(C)p.r(C)p.d(T)p.d(G)}$$$RNA1{StrandType:ss}|RNA2{StrandType:as}$,134
6,RNA1{r(G)p.r(G)p.r(G)p.r(A)p.r(A)p.r(C)p.r(A)p.r(G)p.r(G)p.r(C)p.r(G)p.r(C)p.r(A)p.r(G)p.r(A)p.r(A)p.r(U)p.r(U)p.r(A)p.d(T)p.d(T)}|RNA2{r(U)p.r(A)p.r(A)p.r(U)p.r(U)p.r(C)p.r(U)p.r(G)p.r(C)p.r(G)p.r(C)p.r(C)p.r(U)p.r(G)p.r(U)p.r(U)p.r(C)p.r(C)p.r(C)p.d(A)p.d(C)}$$$RNA1{StrandType:ss}|RNA2{StrandType:as}$,93.6
7,RNA1{r(G)p.r(G)p.r(G)p.r(A)p.r(G)p.r(A)p.r(U)p.r(C)p.r(A)p.r(C)p.r(G)p.r(G)p.r(A)p.r(G)p.r(A)p.r(C)p.r(A)p.r(A)p.r(C)p.d(T)p.d(T)}|RNA2{r(G)p.r(U)p.r(U)p.r(G)p.r(U)p.r(C)p.r(U)p.r(C)p.r(C)p.r(G)p.r(U)p.r(G)p.r(A)p.r(U)p.r(C)p.r(U)p.r(C)p.r(C)p.r(C)p.d(C)p.d(T)}$$$RNA1{StrandType:ss}|RNA2{StrandType:as}$,94.2
8,RNA1{r(G)p.r(G)p.r(G)p.r(C)p.r(C)p.r(A)p.r(G)p.r(G)p.r(A)p.r(A)p.r(A)p.r(C)p.r(A)p.r(C)p.r(U)p.r(C)p.r(U)p.r(A)p.r(G)p.d(T)p.d(T)}|RNA2{r(C)p.r(U)p.r(A)p.r(G)p.r(A)p.r(G)p.r(U)p.r(G)p.r(U)p.r(U)p.r(U)p.r(C)p.r(C)p.r(U)p.r(G)p.r(G)p.r(C)p.r(C)p.r(C)p.d(A)p.d(T)}$$$RNA1{StrandType:ss}|RNA2{StrandType:as}$,83.5
9,RNA1{r(G)p.r(G)p.r(G)p.r(G)p.r(C)p.r(C)p.r(A)p.r(G)p.r(G)p.r(C)p.r(C)p.r(U)p.r(C)p.r(G)p.r(G)p.r(C)p.r(G)p.r(G)p.r(A)p.d(T)p.d(T)}|RNA2{r(U)p.r(C)p.r(C)p.r(G)p.r(C)p.r(C)p.r(G)p.r(A)p.r(G)p.r(G)p.r(C)p.r(C)p.r(U)p.r(G)p.r(G)p.r(C)p.r(C)p.r(C)p.r(C)p.d(G)p.d(G)}$$$RNA1{StrandType:ss}|RNA2{StrandType:as}$,50.8
10,RNA1{r(G)p.r(G)p.r(U)p.r(C)p.r(U)p.r(G)p.r(G)p.r(G)p.r(U)p.r(C)p.r(A)p.r(C)p.r(U)p.r(C)p.r(U)p.r(U)p.r(C)p.r(U)p.r(G)p.d(T)p.d(T)}|RNA2{r(C)p.r(A)p.r(G)p.r(A)p.r(A)p.r(G)p.r(A)p.r(G)p.r(U)p.r(G)p.r(A)p.r(C)p.r(C)p.r(C)p.r(A)p.r(G)p.r(A)p.r(C)p.r(C)p.d(C)p.d(A)}$$$RNA1{StrandType:ss}|RNA2{StrandType:as}$,73.8
11,RNA1{r(G)p.r(G)p.r(U)p.r(G)p.r(A)p.r(G)p.r(G)p.r(A)p.r(C)p.r(U)p.r(C)p.r(A)p.r(G)p.r(G)p.r(C)p.r(G)p.r(U)p.r(G)p.r(A)p.d(T)p.d(T)}|RNA2{r(U)p.r(C)p.r(A)p.r(C)p.r(G)p.r(C)p.r(C)p.r(U)p.r(G)p.r(A)p.r(G)p.r(U)p.r(C)p.r(C)p.r(U)p.r(C)p.r(A)p.r(C)p.r(C)p.d(A)p.d(T)}$$$RNA1{StrandType:ss}|RNA2{StrandType:as}$,94.6
12,RNA1{r(G)p.r(G)p.r(U)p.r(U)p.r(U)p.r(G)p.r(C)p.r(C)p.r(G)p.r(G)p.r(A)p.r(G)p.r(A)p.r(C)p.r(U)p.r(G)p.r(G)p.r(A)p.r(A)p.d(T)p.d(T)}|RNA2{r(U)p.r(U)p.r(C)p.r(C)p.r(A)p.r(G)p.r(U)p.r(C)p.r(U)p.r(C)p.r(C)p.r(G)p.r(G)p.r(C)p.r(A)p.r(A)p.r(A)p.r(C)p.r(C)p.d(G)p.d(A)}$$$RNA1{StrandType:ss}|RNA2{StrandType:as}$,103
13,RNA1{r(G)p.r(U)p.r(C)p.r(A)p.r(U)p.r(G)p.r(G)p.r(A)p.r(G)p.r(A)p.r(U)p.r(A)p.r(A)p.r(U)p.r(G)p.r(C)p.r(A)p.r(G)p.r(A)p.d(T)p.d(T)}|RNA2{r(U)p.r(C)p.r(U)p.r(G)p.r(C)p.r(A)p.r(U)p.r(U)p.r(A)p.r(U)p.r(C)p.r(U)p.r(C)p.r(C)p.r(A)p.r(U)p.r(G)p.r(A)p.r(C)p.d(A)p.d(C)}$$$RNA1{StrandType:ss}|RNA2{StrandType:as}$,115
14,RNA1{r(G)p.r(U)p.r(C)p.r(C)p.r(U)p.r(A)p.r(A)p.r(G)p.r(U)p.r(G)p.r(G)p.r(C)p.r(A)p.r(U)p.r(U)p.r(C)p.r(C)p.r(A)p.r(G)p.d(T)p.d(T)}|RNA2{r(C)p.r(U)p.r(G)p.r(G)p.r(A)p.r(A)p.r(U)p.r(G)p.r(C)p.r(C)p.r(A)p.r(C)p.r(U)p.r(U)p.r(A)p.r(G)p.r(G)p.r(A)p.r(C)p.d(T)p.d(G)}$$$RNA1{StrandType:ss}|RNA2{StrandType:as}$,110
15,RNA1{r(G)p.r(U)p.r(G)p.r(A)p.r(G)p.r(G)p.r(A)p.r(C)p.r(U)p.r(C)p.r(A)p.r(G)p.r(G)p.r(C)p.r(G)p.r(U)p.r(G)p.r(A)p.r(A)p.d(T)p.d(T)}|RNA2{r(U)p.r(U)p.r(C)p.r(A)p.r(C)p.r(G)p.r(C)p.r(C)p.r(U)p.r(G)p.r(A)p.r(G)p.r(U)p.r(C)p.r(C)p.r(U)p.r(C)p.r(A)p.r(C)p.d(C)p.d(A)}$$$RNA1{StrandType:ss}|RNA2{StrandType:as}$,89.4
16,RNA1{r(G)p.r(U)p.r(G)p.r(U)p.r(C)p.r(A)p.r(U)p.r(G)p.r(G)p.r(A)p.r(G)p.r(A)p.r(U)p.r(A)p.r(A)p.r(U)p.r(G)p.r(C)p.r(A)p.d(T)p.d(T)}|RNA2{r(U)p.r(G)p.r(C)p.r(A)p.r(U)p.r(U)p.r(A)p.r(U)p.r(C)p.r(U)p.r(C)p.r(C)p.r(A)p.r(U)p.r(G)p.r(A)p.r(C)p.r(A)p.r(C)p.d(G)p.d(G)}$$$RNA1{StrandType:ss}|RNA2{StrandType:as}$,112
17,RNA1{r(G)p.r(U)p.r(G)p.r(U)p.r(G)p.r(G)p.r(A)p.r(G)p.r(U)p.r(G)p.r(C)p.r(C)p.r(A)p.r(G)p.r(A)p.r(U)p.r(G)p.r(U)p.r(U)p.d(T)p.d(T)}|RNA2{r(A)p.r(A)p.r(C)p.r(A)p.r(U)p.r(C)p.r(U)p.r(G)p.r(G)p.r(C)p.r(A)p.r(C)p.r(U)p.r(C)p.r(C)p.r(A)p.r(C)p.r(A)p.r(C)p.d(C)p.d(T)}$$$RNA1{StrandType:ss}|RNA2{StrandType:as}$,93.9
18,RNA1{r(G)p.r(U)p.r(U)p.r(C)p.r(U)p.r(G)p.r(U)p.r(G)p.r(A)p.r(U)p.r(G)p.r(U)p.r(A)p.r(C)p.r(C)p.r(C)p.r(U)p.r(A)p.r(C)p.d(T)p.d(T)}|RNA2{r(G)p.r(U)p.r(A)p.r(G)p.r(G)p.r(G)p.r(U)p.r(A)p.r(C)p.r(A)p.r(U)p.r(C)p.r(A)p.r(C)p.r(A)p.r(G)p.r(A)p.r(A)p.r(C)p.d(T)p.d(G)}$$$RNA1{StrandType:ss}|RNA2{StrandType:as}$,105
19,RNA1{r(G)p.r(U)p.r(U)p.r(G)p.r(C)p.r(A)p.r(G)p.r(A)p.r(A)p.r(U)p.r(U)p.r(C)p.r(U)p.r(C)p.r(A)p.r(C)p.r(U)p.r(A)p.r(A)p.d(T)p.d(T)}|RNA2{r(U)p.r(U)p.r(A)p.r(G)p.r(U)p.r(G)p.r(A)p.r(G)p.r(A)p.r(A)p.r(U)p.r(U)p.r(C)p.r(U)p.r(G)p.r(C)p.r(A)p.r(A)p.r(C)p.d(A)p.d(T)}$$$RNA1{StrandType:ss}|RNA2{StrandType:as}$,122
20,RNA1{r(U)p.r(A)p.r(A)p.r(U)p.r(G)p.r(C)p.r(C)p.r(A)p.r(A)p.r(A)p.r(C)p.r(A)p.r(G)p.r(U)p.r(C)p.r(C)p.r(U)p.r(A)p.r(A)p.d(T)p.d(T)}|RNA2{r(U)p.r(U)p.r(A)p.r(G)p.r(G)p.r(A)p.r(C)p.r(U)p.r(G)p.r(U)p.r(U)p.r(U)p.r(G)p.r(G)p.r(C)p.r(A)p.r(U)p.r(U)p.r(A)p.d(G)p.d(T)}$$$RNA1{StrandType:ss}|RNA2{StrandType:as}$,105
